Calls of active or inactive are those of the source. The rule behind the calls is not given here.
Legend:
[1] = AUC (0 to infinity) in Sprague-Dawley rat at 14.4 mg/kg, po by LC-MS/MS analysis; assay type: ADME, organism-based; design: dose 14.4 mg/kg, time infinity, route oral; conditions: in vivo
Rattus norvegicus [2] = assay: (§1) Anti-hypersensitive activity in MCT-induced pulmonary arterial hypertension Sprague-Dawley rat model assessed as right ventricular systolic pressure at 43.3 mg/kg, po administered daily for 14 days starting from 14 days post-MCT challenge and measured post-last dose by pressure transducer-coupled polygraphy (reference value: 59.06 +/- 3.26 mmHg); assay type: functional
[3] = Plasma concentration in Sprague-Dawley rat assessed as fasudil level at 14.4 mg/kg, po measured at 4 hrs by LC-MS/MS analysis; assay type: ADME, organism-based; conditions: in vivo
[4] = Cardiotoxicity in Sprague-Dawley rat assessed as cardiac fibrosis at 43.3 mg/kg, po administered daily for 2 weeks by hematoxylin and eosin staining-based microscopic analysis (reference value: 2.99 +/- 1.34 %); assay type: toxicity, organism-based; conditions: in vivo, 336 h
Rattus norvegicus [5] = assay: Hemodynamic activity in Sprague-Dawley rat assessed as effect on mean pulmonary artery pressure at 43.3 mg/kg, po administered daily for 2 weeks by pressure transducer-coupled polygraphy; assay type: ADME, organism-based; conditions: in vivo, 336 h
Rattus norvegicus [6] = assay: Anti-hypersensitive activity in MCT-induced pulmonary arterial hypertension Sprague-Dawley rat model assessed as pulmonary artery medial thickness at 43.3 mg/kg, po administered daily for 14 days starting from 14 days post-MCT challenge and measured post-last dose by hematoxylin and eosin staining-based microscopic analysis (reference value: […] +/- […]); assay type: functional
[7] = Cardiotoxicity in Sprague-Dawley rat assessed as effect on cross-sectional area of cardiomyocyte at 43.3 mg/kg, po administered daily for 2 weeks by hematoxylin and eosin staining-based microscopic analysis (reference value: 209.53 +/- 26.44 micrometer2); assay type: toxicity, organism-based; conditions: in vivo, 336 h
[8] = MRT in Sprague-Dawley rat at 14.4 mg/kg, po by LC-MS/MS analysis; assay type: ADME, organism-based; conditions: in vivo
Rattus norvegicus [9] = assay: (§2) Anti-hypersensitive activity in MCT-induced pulmonary arterial hypertension Sprague-Dawley rat model assessed as reduction in cardiomyocyte hypertrophy by measuring cardiac fibrosis at 43.3 mg/kg, po administered daily for 14 days starting from 14 days post-MCT challenge and measured post-last dose by Masson's trichrome staining-based microscopic analysis (reference value: 11.74 +/- 3.24 %); assay type: functional; design: scale not given: the % may be the effect or the level left
[10] = Plasma concentration in Sprague-Dawley rat assessed as fasudil level at 14.4 mg/kg, po measured at 2 hrs by LC-MS/MS analysis; assay type: ADME, organism-based; conditions: in vivo
[11] = Plasma concentration in Sprague-Dawley rat assessed as fasudil level at 14.4 mg/kg, po measured at 1 hr by LC-MS/MS analysis; assay type: ADME, organism-based; conditions: in vivo
Rattus norvegicus [12] = assay: Hemodynamic activity in Sprague-Dawley rat assessed as effect on right ventricular systolic pressure at 43.3 mg/kg, po administered daily for 2 weeks by pressure transducer-coupled polygraphy; assay type: ADME, organism-based; conditions: in vivo, 336 h
[13] = Tmax in Sprague-Dawley rat at 14.4 mg/kg, po by LC-MS/MS analysis; assay type: ADME, organism-based; conditions: in vivo
Rattus norvegicus [14] = assay: as §1, with “mean pulmonary artery” for “right ventricular systolic”, “36” for “59.06”, “2.83” for “3.26”; assay type: functional
Rattus norvegicus [15] = assay: Hemodynamic activity in Sprague-Dawley rat assessed as effect on mean systemic arterial pressure at 43.3 mg/kg, po administered daily for 2 weeks by pressure transducer-coupled polygraphy; assay type: ADME, organism-based; conditions: in vivo, 336 h
[16] = AUMC (0 to infinity) in Sprague-Dawley rat at 14.4 mg/kg, po by LC-MS/MS analysis; assay type: ADME, organism-based; conditions: in vivo
[17] = Elimination rate constant in Sprague-Dawley rat at 14.4 mg/kg, po by LC-MS/MS analysis; assay type: ADME, organism-based; conditions: in vivo
[18] = Cmax in Sprague-Dawley rat at 14.4 mg/kg, po by LC-MS/MS analysis; assay type: ADME, organism-based; design: dose 14.4 mg/kg, route oral; conditions: in vivo
[19] = Plasma concentration in Sprague-Dawley rat assessed as fasudil level at 14.4 mg/kg, po measured at 0.25 hrs by LC-MS/MS analysis; assay type: ADME, organism-based; conditions: in vivo
Rattus norvegicus [20] = assay: Hemodynamic activity in Sprague-Dawley rat assessed as effect on right ventricular hypertrophy index at 43.3 mg/kg, po administered daily for 2 weeks by pressure transducer-coupled polygraphy; assay type: ADME, organism-based; conditions: in vivo, 336 h
[21] = Plasma concentration in Sprague-Dawley rat assessed as fasudil level at 14.4 mg/kg, po measured at 0.5 hrs by LC-MS/MS analysis; assay type: ADME, organism-based; conditions: in vivo
[22] = AUC (0 to t) in Sprague-Dawley rat at 14.4 mg/kg, po by LC-MS/MS analysis; assay type: ADME, organism-based; conditions: in vivo
Rattus norvegicus [23] = assay: as §2, with “lung” for “reduction in cardiomyocyte hypertrophy by measuring cardiac”, “6.12” for “11.74”, “1.66%)” for “3.24 %)”; assay type: functional
[24] = AUMC (0 to t) in Sprague-Dawley rat at 14.4 mg/kg, po by LC-MS/MS analysis; assay type: ADME, organism-based; conditions: in vivo
Rattus norvegicus [25] = assay: as §2, with “cross-sectional area of cardiomyocyte” for “cardiac fibrosis”, “hematoxylin and eosin” for “Masson's trichrome”, “418” for “11.74”, “50.88 micrometer2)” for “3.24 %)”; assay type: functional
Rattus norvegicus [26] = assay: Reversal of MCT-induced Sprague-Dawley rat model of elastic fiber hyperplasia at 43.3 mg/kg, po administered daily for 14 days starting from 14 days post-MCT challenge and measured post-last dose by elastic fibres staining-based microscopic analysis; assay type: functional, organism-based

For `O=C(O)C(Cl)Cl.O=S(=O)(c1cccc2cnccc12)N1CCCNCC1`, the AUC(0-inf) [1] was 117 ng·h/mL, the Activity (Rattus norvegicus [2]) was 49.54 mmHg and the Cp [3] was 4.46 ng/mL. For the same compound, the Activity [4] was 2.25%, the Activity (Rattus norvegicus [5]) was “Non-Toxic” and the Activity (Rattus norvegicus [6]) was 0.2. The Activity [7] was 190.6 um2, the MRT [8] was 77.4 min and the Activity (Rattus norvegicus [9]) was 3.69%. The Cp [10] was 18.4 ng/mL, the Cp [11] was 38 ng/mL and the Activity (Rattus norvegicus [12]) was “Non-Toxic”. For the same compound, the Tmax [13] was 15 min, the Activity (Rattus norvegicus [14]) was 25.67 mmHg and the Activity (Rattus norvegicus [15]) was “Non-Toxic”. The AUMC [16] was 160 hr.hr.ng/ml, the k el [17] was 0.000219 s⁻¹ and the Cmax [18] was 113 ng/mL. For the same compound, the Cp [19] was 113 ng/mL, the Activity (Rattus norvegicus [20]) was “Non-Toxic” and the Cp [21] was 55.5 ng/mL. It also gave an AUC(0-t) [22] of 109 ng·h/mL, an Activity (Rattus norvegicus [23]) of 6.12% and an AUMCt [24] of 119 hr.hr.ng/ml. It also gave an Activity (Rattus norvegicus [25]) of 282.4 um2.
In the case of `O=S(=O)(c1cccc2cnccc12)N1CCCNCC1`, the Activity (Rattus norvegicus [26]) is reported as “Active”.

— ChEMBL document CHEMBL4340557, “Fasudil dichloroacetate (FDCA), an orally available agent with potent therapeutic efficiency on monocrotaline-induced pulmonary arterial hypertension rats” (Bioorg Med Chem Lett, 2019)
